In ChEMBL document CHEMBL4616688, “PROTAC Compounds Targeting TRK for Use in Cancer Therapeutics” (ACS Med Chem Lett, 2020):
pIC50: −log10 of the molar value.

Test system: KM12
Assay: Antiproliferative activity against human KM12 cells expressing TPM3-TRKA assessed as reduction in cell viability measured after 3 days by Celltiter-Glo assay
Format: functional, cell-based
Conditions: KM12, 72 h

O=C(CN1CCN(c2cccc(-c3cnc4ccc(N5CCC[C@@H]5c5cccc(F)c5)nn34)n2)CC1)NCCOCCNc1cccc2c1C(=O)N(C1CCC(=O)NC1=O)C2=O (stereo not given in full)
pIC50: 8.42

O=C(CN1CCN(c2cccc(-c3cnc4ccc(N5CCC[C@@H]5c5cccc(F)c5)nn34)n2)CC1)NCCNc1ccc2c(c1)C(=O)N(C1CCC(=O)NC1=O)C2=O (stereo not given in full)
pIC50: 9.05

O=C1CCC(N2C(=O)c3ccc(NCCCCC(=O)N4CCN(c5cccc(-c6cnc7ccc(N8CCC[C@@H]8c8cccc(F)c8)nn67)n5)CC4)cc3C2=O)C(=O)N1 (stereo not given in full)
pIC50: 9.05

O=C1CCC(N2C(=O)c3ccc(NCCN4CCN(c5cccc(-c6cnc7ccc(N8CCC[C@@H]8c8cccc(F)c8)nn67)n5)CC4)cc3C2=O)C(=O)N1 (stereo not given in full)
pIC50: 8.47

O=C1CCC(N2C(=O)c3ccc(NCCOCCOCCOCCOCCC(=O)N4CCN(c5ccc(C(=O)Nc6n[nH]c7ccc(Cc8cc(F)cc(F)c8)cc67)c(NC6CCOCC6)c5)CC4)cc3C2=O)C(=O)N1 (stereo not given)
pIC50: 8.80

O=C1CCC(N2C(=O)c3ccc(N4CC(C(=O)N5CCN(c6cccc(-c7cnc8ccc(N9CCC[C@@H]9c9cccc(F)c9)nn78)n6)CC5)C4)cc3C2=O)C(=O)N1 (stereo not given in full)
pIC50: 8.70

OC1CCN(c2cc(-c3cccc(-c4cnc5ccc(N6CCC[C@@H]6c6cccc(F)c6)nn45)n3)ccn2)CC1
pIC50: 7.33

O=C1CCC(N2C(=O)c3cccc(NCCCC(=O)N4CCN(c5ccc(C(=O)Nc6n[nH]c7ccc(Cc8cc(F)cc(F)c8)cc67)c(NC6CCOCC6)c5)CC4)c3C2=O)C(=O)N1 (stereo not given)
pIC50: 8.82

O=C(CN1CCN(c2cccc(-c3cnc4ccc(N5CCC[C@@H]5c5cccc(F)c5)nn34)n2)CC1)NCCOCCNc1ccc2c(c1)C(=O)N(C1CCC(=O)NC1=O)C2=O (stereo not given in full)
pIC50: 9.05

CN1CCN(c2ccc(C(=O)Nc3n[nH]c4ccc(Cc5cc(F)cc(F)c5)cc34)c(NC3CCOCC3)c2)CC1 [ENTRECTINIB]
pIC50: 8.37
